Experimental data published in the supplement of paper PMC9663587.

Columns and labels:
[1] = compound: CC(=O)c1c(C)c2cnc(Nc3ccc(N4CCNCC4)cn3)nc2n(C2CCCC2)c1=O; assay: increase in dead-cell fraction, 72 h; higher = more death;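 further: breast cancer cell lines in 384-well plates, stained with Hoechst plus LIVE/DEAD far red dye and imaged, cells above an LDR intensity threshold counted dead, Hoechst-negative corpses included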
[2] = compound: CCN1CCN(Cc2ccc(Nc3ncc(F)c(-c4cc(F)c5nc(C)n(C(C)C)c5c4)n3)nc2)CC1; assay: as above
LEE011/Ribociclib [3] = compound: T1, CN(C)C(=O)c1cc2cnc(Nc3ccc(N4CCNCC4)cn3)nc2n1C1CCCC1 [LEE011/Ribociclib]; assay: as above
Flavopiridol [4] = compound: T2, CN1CC[C@H](c2c(O)cc(O)c3c(=O)cc(-c4ccccc4Cl)oc23)[C@H](O)C1 [Flavopiridol]; assay: as above
BSJ-03-123 = compound: CC(=O)c1c(C)c2cnc(Nc3ccc(N4CCN(CCOCCOCCOCCNC(=O)COc5cccc6c5C(=O)N(C5CCC(=O)NC5=O)C6=O)CC4)cn3)nc2n(C2CCCC2)c1=O [BSJ-03-123]; assay: GR value, 72 h; higher = faster growth (1 = untreated, <0 = killing);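 further: breast cancer and non-malignant breast epithelial lines, nine half-log doses, viable cells counted by Hoechst and LIVE/DEAD dye imaging versus time-zero plates and DMSO controls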
[5] = compound: CC(=O)c1c(C)c2cnc(Nc3ccc(N4CCNCC4)cn3)nc2n(C2CCCC2)c1=O; assay: as above
[6] = compound: CCN1CCN(Cc2ccc(Nc3ncc(F)c(-c4cc(F)c5nc(C)n(C(C)C)c5c4)n3)nc2)CC1; assay: as above
Neratinib/HKI272 = compound: CCOc1cc2ncc(C#N)c(Nc3ccc(OCc4ccccn4)c(Cl)c3)c2cc1NC(=O)/C=C/CN(C)C [Neratinib/HKI272]; assay: as above
[7] = compound: CCc1cnn2c(NCc3ccc[n+]([O-])c3)cc(N3CCCC[C@H]3CCO)nc12; assay: as above
LEE011/Ribociclib [8] = compound: T1, LEE011/Ribociclib; assay: as above
THZ1 = compound: CN(C)C/C=C/C(=O)Nc1ccc(C(=O)Nc2cccc(Nc3ncc(Cl)c(-c4c[nH]c5ccccc45)n3)c2)cc1 [THZ1]; assay: as above
Flavopiridol [9] = compound: T2, Flavopiridol; assay: as above

For SKBR3, which “increase in dead-cell fraction” value ([1]; 0.0003162 µM) is on record?
The value was -0.0013.

And the “increase in dead-cell fraction” value ([1]; 0.001 µM)?
Its value is 0.0036.

What about the “increase in dead-cell fraction” value ([1]; 0.003162 µM) of the same cell line?
The value was 0.0075.

And the “increase in dead-cell fraction” value ([1]; 0.01 µM)?
Its value is 0.015.

And the “increase in dead-cell fraction” value ([1]; 0.03162 µM)?
The value was 0.0198.

What about the “increase in dead-cell fraction” value ([1]; 0.1 µM) of the same cell line?
The value was 0.0318.

And the “increase in dead-cell fraction” value ([1]; 0.3162 µM)?
The value was 0.0437.

And the “increase in dead-cell fraction” value ([1]; 1 µM)?
Its value is 0.0364.

And the “increase in dead-cell fraction” value ([1]; 3.162 µM)?
The value was 0.0469.

What about the “increase in dead-cell fraction” value ([2]; 0.001 µM) of the same cell line?
The value was 0.0059.

What about the “increase in dead-cell fraction” value ([2]; 0.003162 µM) of the same cell line?
The value was 0.003.

And the “increase in dead-cell fraction” value ([2]; 0.01 µM)?
Its value is 0.0233.

What about the “increase in dead-cell fraction” value ([2]; 0.03162 µM) of the same cell line?
Its value is 0.0346.

And the “increase in dead-cell fraction” value ([2]; 0.1 µM)?
The value was 0.0399.

What about the “increase in dead-cell fraction” value ([2]; 0.3162 µM) of the same cell line?
The value was 0.0362.

What about the “increase in dead-cell fraction” value ([2]; 1 µM) of the same cell line?
Its value is 0.0582.

And the “increase in dead-cell fraction” value ([2]; 3.162 µM)?
The value was 0.0358.

What about the “increase in dead-cell fraction” value ([2]; 10 µM) of the same cell line?
Its value is 0.0879.

And the “increase in dead-cell fraction” value (LEE011/Ribociclib [3]; 0.001 µM)?
Its value is -0.0002.

And the “increase in dead-cell fraction” value (LEE011/Ribociclib [3]; 0.003162 µM)?
The value was -0.0049.

And the “increase in dead-cell fraction” value (LEE011/Ribociclib [3]; 0.01 µM)?
The value was 0.0112.

And the “increase in dead-cell fraction” value (LEE011/Ribociclib [3]; 0.03162 µM)?
The value was 0.0071.

And the “increase in dead-cell fraction” value (LEE011/Ribociclib [3]; 0.1 µM)?
The value was 0.0105.

What about the “increase in dead-cell fraction” value (LEE011/Ribociclib [3]; 0.3162 µM) of the same cell line?
The value was 0.0092.

And the “increase in dead-cell fraction” value (LEE011/Ribociclib [3]; 1 µM)?
Its value is 0.0206.

And the “increase in dead-cell fraction” value (LEE011/Ribociclib [3]; 3.162 µM)?
Its value is 0.0182.

And the “increase in dead-cell fraction” value (LEE011/Ribociclib [3]; 10 µM)?
Its value is 0.0119.

And the “increase in dead-cell fraction” value (Flavopiridol [4]; 0.0001 µM)?
The value was -0.0025.

And the “increase in dead-cell fraction” value (Flavopiridol [4]; 0.0003162 µM)?
Its value is -0.0004.

What about the “increase in dead-cell fraction” value (Flavopiridol [4]; 0.001 µM) of the same cell line?
The value was 0.0053.

And the “increase in dead-cell fraction” value (Flavopiridol [4]; 0.003162 µM)?
The value was -0.001.

What about the “increase in dead-cell fraction” value (Flavopiridol [4]; 0.01 µM) of the same cell line?
The value was -0.0038.

And the “increase in dead-cell fraction” value (Flavopiridol [4]; 0.03162 µM)?
Its value is -0.0082.

And the “increase in dead-cell fraction” value (Flavopiridol [4]; 0.1 µM)?
The value was 0.0051.

And the “increase in dead-cell fraction” value (Flavopiridol [4]; 0.3162 µM)?
The value was 0.0663.

And the “increase in dead-cell fraction” value (Flavopiridol [4]; 1 µM)?
The value was 0.417.

And the GR value (BSJ-03-123; 0.001 µM)?
Its GR value is 0.911 GR.

What about the GR value (BSJ-03-123; 0.003162 µM) of the same cell line?
The GR value was 0.855 GR.

And the GR value (BSJ-03-123; 0.01 µM)?
The GR value was 0.825 GR.

And the GR value (BSJ-03-123; 0.03162 µM)?
The GR value was 0.79 GR.

What about the GR value (BSJ-03-123; 0.1 µM) of the same cell line?
Its GR value is 0.644 GR.

What about the GR value (BSJ-03-123; 0.3162 µM) of the same cell line?
Its GR value is 0.75 GR.

And the GR value (BSJ-03-123; 1 µM)?
The GR value was 0.506 GR.

What about the GR value (BSJ-03-123; 3.162 µM) of the same cell line?
The GR value was 0.514 GR.

What about the GR value (BSJ-03-123; 10 µM) of the same cell line?
Its GR value is -0.35 GR.

And the GR value ([5]; 0.0003162 µM)?
Its GR value is 1.05 GR.

What about the GR value ([5]; 0.001 µM) of the same cell line?
Its GR value is 1.03 GR.

And the GR value ([5]; 0.003162 µM)?
The GR value was 0.946 GR.

And the GR value ([5]; 0.01 µM)?
Its GR value is 0.845 GR.

And the GR value ([5]; 0.03162 µM)?
Its GR value is 0.697 GR.

What about the GR value ([5]; 0.1 µM) of the same cell line?
The GR value was 0.591 GR.

What about the GR value ([5]; 0.3162 µM) of the same cell line?
The GR value was 0.434 GR.

And the GR value ([5]; 1 µM)?
Its GR value is 0.48 GR.

And the GR value ([5]; 3.162 µM)?
Its GR value is 0.334 GR.

What about the GR value ([6]; 0.001 µM) of the same cell line?
Its GR value is 0.874 GR.

What about the GR value ([6]; 0.003162 µM) of the same cell line?
Its GR value is 0.866 GR.

And the GR value ([6]; 0.01 µM)?
The GR value was 0.623 GR.

And the GR value ([6]; 0.03162 µM)?
The GR value was 0.491 GR.

What about the GR value ([6]; 0.1 µM) of the same cell line?
Its GR value is 0.402 GR.

And the GR value ([6]; 0.3162 µM)?
Its GR value is 0.337 GR.

And the GR value ([6]; 1 µM)?
The GR value was 0.24 GR.

And the GR value ([6]; 3.162 µM)?
Its GR value is 0.27 GR.

What about the GR value ([6]; 10 µM) of the same cell line?
Its GR value is 0.151 GR.

And the GR value (Neratinib/HKI272; 0.0003162 µM)?
Its GR value is 0.841 GR.

And the GR value (Neratinib/HKI272; 0.001 µM)?
Its GR value is 0.631 GR.

What about the GR value (Neratinib/HKI272; 0.003162 µM) of the same cell line?
Its GR value is 0.264 GR.

And the GR value (Neratinib/HKI272; 0.01 µM)?
The GR value was 0.0804 GR.

What about the GR value (Neratinib/HKI272; 0.03162 µM) of the same cell line?
Its GR value is 0.0019 GR.

And the GR value (Neratinib/HKI272; 0.1 µM)?
The GR value was -0.0509 GR.

And the GR value (Neratinib/HKI272; 0.3162 µM)?
Its GR value is -0.163 GR.

What about the GR value (Neratinib/HKI272; 1 µM) of the same cell line?
Its GR value is -0.252 GR.

And the GR value (Neratinib/HKI272; 3.162 µM)?
The GR value was -0.246 GR.

And the GR value ([7]; 0.0001 µM)?
The GR value was 0.95 GR.

And the GR value ([7]; 0.0003162 µM)?
The GR value was 0.921 GR.

What about the GR value ([7]; 0.001 µM) of the same cell line?
The GR value was 1.07 GR.

What about the GR value ([7]; 0.003162 µM) of the same cell line?
The GR value was 0.933 GR.

And the GR value ([7]; 0.01 µM)?
The GR value was 0.0102 GR.

And the GR value ([7]; 0.03162 µM)?
Its GR value is -0.581 GR.

And the GR value ([7]; 0.1 µM)?
Its GR value is -0.6 GR.

And the GR value ([7]; 0.3162 µM)?
The GR value was -0.628 GR.

And the GR value ([7]; 1 µM)?
The GR value was -0.579 GR.

And the GR value (LEE011/Ribociclib [8]; 0.001 µM)?
Its GR value is 0.897 GR.

And the GR value (LEE011/Ribociclib [8]; 0.003162 µM)?
Its GR value is 0.728 GR.

And the GR value (LEE011/Ribociclib [8]; 0.01 µM)?
Its GR value is 0.774 GR.

And the GR value (LEE011/Ribociclib [8]; 0.03162 µM)?
Its GR value is 0.766 GR.

What about the GR value (LEE011/Ribociclib [8]; 0.1 µM) of the same cell line?
Its GR value is 0.776 GR.

And the GR value (LEE011/Ribociclib [8]; 0.3162 µM)?
Its GR value is 0.471 GR.

And the GR value (LEE011/Ribociclib [8]; 1 µM)?
The GR value was 0.582 GR.

And the GR value (LEE011/Ribociclib [8]; 3.162 µM)?
Its GR value is 0.429 GR.

And the GR value (LEE011/Ribociclib [8]; 10 µM)?
The GR value was 0.586 GR.

And the GR value (THZ1; 0.0001 µM)?
Its GR value is 1.08 GR.

What about the GR value (THZ1; 0.0003162 µM) of the same cell line?
Its GR value is 1.06 GR.

What about the GR value (THZ1; 0.001 µM) of the same cell line?
Its GR value is 0.867 GR.

And the GR value (THZ1; 0.003162 µM)?
Its GR value is 0.854 GR.

What about the GR value (THZ1; 0.01 µM) of the same cell line?
The GR value was 0.743 GR.

And the GR value (THZ1; 0.03162 µM)?
The GR value was 0.0057 GR.

And the GR value (THZ1; 0.1 µM)?
Its GR value is -0.515 GR.

What about the GR value (THZ1; 0.3162 µM) of the same cell line?
Its GR value is -0.579 GR.

What about the GR value (THZ1; 1 µM) of the same cell line?
Its GR value is -0.789 GR.

What about the GR value (Flavopiridol [9]; 0.0001 µM) of the same cell line?
The GR value was 1.04 GR.

What about the GR value (Flavopiridol [9]; 0.0003162 µM) of the same cell line?
Its GR value is 0.989 GR.

And the GR value (Flavopiridol [9]; 0.001 µM)?
Its GR value is 0.844 GR.

What about the GR value (Flavopiridol [9]; 0.003162 µM) of the same cell line?
Its GR value is 0.823 GR.

What about the GR value (Flavopiridol [9]; 0.01 µM) of the same cell line?
The GR value was 0.823 GR.

And the GR value (Flavopiridol [9]; 0.03162 µM)?
The GR value was 0.9 GR.

What about the GR value (Flavopiridol [9]; 0.1 µM) of the same cell line?
Its GR value is 0.641 GR.

And the GR value (Flavopiridol [9]; 0.3162 µM)?
Its GR value is -0.0615 GR.

What about the GR value (Flavopiridol [9]; 1 µM) of the same cell line?
Its GR value is -0.656 GR.
